Results on six compounds are retold here after article PMC10223737, “Validation of Freshly Isolated Rat Renal Cells as a Tool for Preclinical Assessment of Radiolabeled Receptor-Specific Peptide Uptake in the Kidney” (Pharmaceuticals, 2023).

Data set [1] has as its system isolated rat renal cells. The experiment in a line: Active versus passive cellular accumulation in isolated rat renal cells (37 °C vs low temperature). It is filed as in vitro ADME. The conditions noted are these: n = 4, Figure 6; for contribution of active accumulation to cell uptake: 37 °C (= 100%) vs low incubation temperature (2–4 °C). The text has this:
An experiment was arranged to test this cellular model's potential for investigating active membrane transport processes in radiopeptide renal accumulation. […] Using the same procedure as for the radiopeptides, we tested and expressed the uptake of the other studied compounds.

The subject of a further data set is rat kidneys. The conditions noted are these: cited from earlier work; for radiopeptide uptake in rat kidneys in vivo: radioactivity in the kidneys 60 min after i.v. administration, rats.
The test system of data set [2] is isolated rat renal cells. The experiment in a line: Radiopeptide uptake in freshly isolated rat renal cells. The conditions noted are these: 1 mL suspension 2.10^6/mL + 10 µL radiopeptide (1 µg/mL), 30 min, 37 °C, cells washed four times, gamma-counter.
Method: Fresh rat renal cells were isolated from the kidney using the two-phase collagenase perfusion method described by Jones et al. [11]. Male Wistar rats weighing 270–330 g were used for the experiments. The rats were housed under standard conditions (tap water, standard diet, and a 12/12 h light–dark cycle). Animals were fasted for 18–24 h prior to experiments.
As a first step, rats were anesthetized (sodium pentobarbital, 50 mg/kg), the abdomen was opened, and the right renal artery and adjacent parts of the aorta were freed. Then, the right renal artery was cannulated via the aorta. Single-pass perfusion was conducted using oxygenated calcium-free Hanks’ buffer (pH 7.4) containing EGTA (0.5 mM) and Hepes (25 mM). The second perfusion phase was performed in a recirculation system with modified Hanks’ buffer containing CaCl2 (4 mM) and collagenase (0.10 % w/v) for 18–22 min. The kidneys were removed and dispersed in cold Krebs–Henseleit buffer with Hepes (25 mM) and bovine serum albumin (2% w/v). The resulting suspension was filtered and washed with Krebs–Henseleit buffer. Following centrifugation (3 min; 80 g; 4 °C), we used the trypan blue exclusion method to determine the number of cells in the suspension. […] As a result, the cell viability at the end of the 30 min incubation interval was >85%.
Standard incubations were conducted for 30 min at 37 °C using 1 mL of cell suspension containing 2.10^6/mL renal cells. The radiopeptide uptake was determined by mixing 1 mL of cell suspension and 10 µL of the radiopeptide (1 µg/mL). After incubation, the cells were washed four times and separated. The radioactivity of the cell fractions was measured as mentioned below.
A further data set has as its system LLC-PK1 cells. The experiment in a line: Cellular uptake in LLC-PK1 cells. The format is in vitro ADME, porcine. The conditions noted are these: incubation time 30 min; Figure 5. The text has this: The cellular accumulation of two somatostatin receptor-specific analogs ([^111In]In -DOTA-TATE and [^111In]In -DOTA-NOC) was compared in two renal cellular models, OK cells and LLC-PK1 cells.

Where a SMILES comes first, the peptide text is derived from it. [ ]: non-standard residue; d: D form. The star is where a group is joined. DOTA = O=C(O)CN1CCN(CC(=O)O)CCN(CC(=O)*)CCN(CC(=O)O)CC1

From the text for rat kidneys: The data on radiopeptide cellular uptake were compared with already available data on radiopeptide renal retention in rats in vivo, which were previously published by our team.

In the case of `O=C(O)C(S)C(S)C(=O)O` (stereo not drawn) [[^99mTc]Tc-DMSA, dimercaptosuccinate, metal not drawn], the “contribution of active accumulation to cell uptake” value with isolated rat renal cells [1] is reported as “lowest contribution”.
Take “DTPA-DGlu-Glu-Glu-Glu-Glu-Glu-Ala-Tyr-Gly-Trp-Met-Asp-Phe-NH2 [[^111In]In-DTPA-MG0]”: the “retention in the rat kidney in vivo (in words)” value in the data set on rat kidneys (rat, in vivo, iv) is recorded as “relatively high”.
“[DOTA^0, Tyr^3, Thr^8]-octreotide [[^111In]In-DOTA-TATE]”: in the data set on rat kidneys, the “radiopeptide uptake in rat kidneys in vivo” value (shortened to “radiopeptide uptake … in vivo”) was 3.08 ± 0.42 [19] %D/g. The “radiopeptide uptake in isolated rat cells (In Vitro)” value (“radiopeptide uptake … (In Vitro)” for short) with isolated rat renal cells [2] was found to be 0.36 ± 0.10 %D/10^6 cells. Also, the “cellular accumulation in LLC-PK1 cells compared with OK cells” value in the data set on LLC-PK1 cells is on record as “relatively similar in both cell lines”.
Turning to `CSCC[C@H](NC(=O)[C@H](Cc1c[nH]c2ccccc12)NC(=O)CNC(=O)[C@H](Cc1ccc(O)cc1)NC(=O)[C@H](C)NC(=O)[C@@H](CCC(=O)O)NC(=O)CN1CCN(CC(=O)O)CCN(CC(=O)O)CCN(CC(=O)O)CC1)C(=O)N[C@@H](CC(=O)O)C(=O)N[C@@H](Cc1ccccc1)C(N)=O` [[^111In]In-DOTA-MG11, metal not drawn] ({DOTA}-[dE]AYGWMDF-NH2), the “radiopeptide uptake … in vivo” value in the data set with rat kidneys is 0.84 ± 0.35 [21] %D/g. Also, in the data set with isolated rat renal cells [2], the “radiopeptide uptake … (In Vitro)” value was found to be 0.16 ± 0.15 %D/10^6 cells.
As to “mercaptoacetylglycylglycylglycine [[^99mTc]Tc-MAG3]”, the “accumulation at the low incubation temperature” value with isolated rat renal cells [1] (2–4 °C, active processes blocked) was “negligible accumulation”. Moreover, in the data set with isolated rat renal cells [1], the “contribution of active accumulation to cell uptake” value is listed as “highest contribution”.
“[DOTA^0, D-Phe^1, 1-Nal^3]-octreotide (disulfide) [[^111In]In-DOTA-NOC, somatostatin receptor-specific analog DOTA-NOC labeled with indium-111]”: the “radiopeptide uptake … in vivo” value in the data set on rat kidneys is 2.84 ± 0.28 [19] %D/g. Also, the “radiopeptide uptake … (In Vitro)” value in the data set on isolated rat renal cells [2] is on record as 0.75 ± 0.09 %D/10^6 cells. Moreover, the “cellular accumulation in LLC-PK1 cells compared with OK cells” value with LLC-PK1 cells is reported as “significantly higher”.
